Data published in ChEMBL document CHEMBL1201862, “PubChem BioAssay data set” (2004).
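Method: 48-hour compound exposure of cells in 96-well plates, five concentrations, linear interpolation of endpoints. Here, GI50 denotes the concentration required for 50% inhibition of growth.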 Active and inactive are the calls of the source. Cut-off read from the data, not from the text of the source: active = GI50 up to about 1.1 µM and inactive = higher.

Tests used:
Experiment in all cases: NCI tumour cell line growth inhibition, 48 h
786-0 = system: 786-0
A498 = system: A498
A549 = system: A549
ACHN = system: ACHN
CAKI-1 = system: CAKI-1
COLO 205 = system: COLO 205
DLD-1 = system: DLD-1
DMS-114 = system: DMS-114
DMS-273 = system: DMS-273
EKVX = system: EKVX
HCC 2998 = system: HCC 2998
HCT-116 = system: HCT-116
HCT-15 = system: HCT-15
HL-60 = system: HL-60
HOP-18 = system: HOP-18
HOP-62 = system: HOP-62
HOP-92 = system: HOP-92
HT-29 = system: HT-29
IGROV-1 = system: IGROV-1
K562 = system: K562
KM-20L2 = system: KM-20L2
KM12 = system: KM12
LOX IMVI = system: LOX IMVI
LXFL 529 = system: LXFL 529
M14 = system: M14
M19-MEL = system: M19-MEL
MOLT-4 = system: MOLT-4
Malme-3M = system: Malme-3M
NCI-H226 = system: NCI-H226
NCI-H23 = system: NCI-H23
NCI-H460 = system: NCI-H460
NCI-H522 = system: NCI-H522
OVCAR-3 = system: OVCAR-3
OVCAR-4 = system: OVCAR-4
OVCAR-5 = system: OVCAR-5
OVCAR-8 = system: OVCAR-8
RPMI-8226 = system: RPMI-8226
RXF 393 = system: RXF 393
RXF 631 = system: RXF 631
SF-268 = system: SF-268
SF-295 = system: SF-295
SF-539 = system: SF-539
SK-MEL-28 = system: SK-MEL-28
SK-MEL-5 = system: SK-MEL-5
SK-OV-3 = system: SK-OV-3
SN12C = system: SN12C
SNB-19 = system: SNB-19
SNB-75 = system: SNB-75
SNB-78 = system: SNB-78
SR = system: SR
SW-620 = system: SW-620
TK-10 = system: TK-10
U-251 = system: U-251
UACC-257 = system: UACC-257
UACC-62 = system: UACC-62
UO-31 = system: UO-31
XF498 = system: XF498
CCRF-CEM = system: CCRF-CEM
SK-MEL-2 = system: SK-MEL-2

In the case of `O=S(=O)(O)SC/C=C\CSS(=O)(=O)O`, the GI50 (786-0) is reported as > 100 µM (inactive), the GI50 (A498) is reported as > 100 µM (inactive) and the GI50 (A549) is reported as 44.4 µM (inactive). The GI50 (ACHN) was > 100 µM (inactive), the GI50 (CAKI-1) was > 100 µM (inactive) and the GI50 (COLO 205) was > 100 µM (inactive). For the same compound, the GI50 (DLD-1) was > 100 µM (inactive), the GI50 (DMS-114) was 42.7 µM (inactive) and the GI50 (DMS-273) was 69.5 µM (inactive). For the same compound, the GI50 (EKVX) was > 100 µM (inactive), the GI50 (HCC 2998) was > 100 µM (inactive) and the GI50 (HCT-116) was > 100 µM (inactive). For the same compound, the GI50 (HCT-15) was over 100 µM, the GI50 (HL-60) was > 100 µM (inactive) and the GI50 (HOP-18) was > 100 µM (inactive). The GI50 (HOP-62) was > 100 µM (inactive), the GI50 (HOP-92) was > 100 µM (inactive) and the GI50 (HT-29) was 42.3 µM (inactive). The GI50 (IGROV-1) was > 100 µM (inactive), the GI50 (K562) was > 100 µM (inactive) and the GI50 (KM-20L2) was > 100 µM (inactive). For the same compound, the GI50 (KM12) was 21.4 µM (inactive), the GI50 (LOX IMVI) was 24.8 µM (inactive) and the GI50 (LXFL 529) was > 100 µM (inactive). The GI50 (M14) was > 100 µM (inactive), the GI50 (M19-MEL) was 98.9 µM (inactive) and the GI50 (MOLT-4) was > 100 µM (inactive). The GI50 (Malme-3M) was > 100 µM (inactive), the GI50 (NCI-H226) was 49.7 µM (inactive) and the GI50 (NCI-H23) was > 100 µM (inactive). For the same compound, the GI50 (NCI-H460) was 42.9 µM (inactive), the GI50 (NCI-H522) was > 100 µM (inactive) and the GI50 (OVCAR-3) was > 100 µM (inactive). For the same compound, the GI50 (OVCAR-4) was > 100 µM (inactive), the GI50 (OVCAR-5) was > 100 µM (inactive) and the GI50 (OVCAR-8) was > 100 µM (inactive). For the same compound, the GI50 (RPMI-8226) was > 100 µM (inactive), the GI50 (RXF 393) was > 100 µM (inactive) and the GI50 (RXF 631) was 37.5 µM (inactive). For the same compound, the GI50 (SF-268) was 48.9 µM (inactive), the GI50 (SF-295) was 31.3 µM (inactive) and the GI50 (SF-539) was 66.2 µM (inactive). The GI50 (SK-MEL-28) was > 100 µM (inactive), the GI50 (SK-MEL-5) was > 100 µM (inactive) and the GI50 (SK-OV-3) was 57.8 µM (inactive). For the same compound, the GI50 (SN12C) was > 100 µM (inactive), the GI50 (SNB-19) was 42.4 µM (inactive) and the GI50 (SNB-75) was 60.4 µM (inactive). The GI50 (SNB-78) was > 100 µM (inactive), the GI50 (SR) was > 100 µM (inactive) and the GI50 (SW-620) was > 100 µM (inactive). The GI50 (TK-10) was > 100 µM (inactive), the GI50 (U-251) was 31.5 µM (inactive) and the GI50 (UACC-257) was > 100 µM (inactive). For the same compound, the GI50 (UACC-62) was > 100 µM (inactive), the GI50 (UO-31) was > 100 µM (inactive) and the GI50 (XF498) was > 100 µM (inactive).

In the case of `COc1ccc2[nH]c3c(c2c1)[C@H](c1ccccc1)C[C@@H]1C(=O)N(c2ccccc2)C(=O)[C@H]31`, the GI50 (786-0) is reported as 17.5 µM (inactive), the GI50 (A498) is reported as 21.4 µM (inactive) and the GI50 (A549) is reported as 13.3 µM (inactive). For the same compound, the GI50 (ACHN) was 22.1 µM (inactive), the GI50 (CAKI-1) was 25.6 µM (inactive) and the GI50 (CCRF-CEM) was 30.9 µM (inactive). The GI50 (COLO 205) was > 100 µM (inactive), the GI50 (DLD-1) was 59.7 µM (inactive) and the GI50 (DMS-114) was 29.1 µM (inactive). The GI50 (DMS-273) was 47.8 µM (inactive), the GI50 (EKVX) was 89.1 µM (inactive) and the GI50 (HCC 2998) was 35.5 µM (inactive). The GI50 (HCT-116) was 4.95 µM (inactive), the GI50 (HCT-15) was 41.7 µM and the GI50 (HOP-18) was 2.54 µM (inactive). The GI50 (HOP-62) was 22 µM (inactive), the GI50 (HOP-92) was 37.3 µM (inactive) and the GI50 (IGROV-1) was 26.9 µM (inactive). For the same compound, the GI50 (K562) was 47.9 µM (inactive), the GI50 (KM-20L2) was 64.9 µM (inactive) and the GI50 (KM12) was 17.5 µM (inactive). For the same compound, the GI50 (LOX IMVI) was 33.2 µM (inactive), the GI50 (LXFL 529) was 43.2 µM (inactive) and the GI50 (M14) was 42.3 µM (inactive). The GI50 (M19-MEL) was > 100 µM (inactive), the GI50 (MOLT-4) was 15.1 µM (inactive) and the GI50 (Malme-3M) was 45.5 µM (inactive). For the same compound, the GI50 (NCI-H226) was 19.4 µM (inactive), the GI50 (NCI-H460) was 22.4 µM (inactive) and the GI50 (NCI-H522) was 31.3 µM (inactive). For the same compound, the GI50 (OVCAR-3) was 23.8 µM (inactive), the GI50 (OVCAR-4) was 16.7 µM (inactive) and the GI50 (OVCAR-5) was > 100 µM (inactive). For the same compound, the GI50 (OVCAR-8) was 4.93 µM (inactive), the GI50 (RXF 393) was 16 µM (inactive) and the GI50 (RXF 631) was 45.1 µM (inactive). For the same compound, the GI50 (SF-268) was > 100 µM (inactive), the GI50 (SF-295) was 48.4 µM (inactive) and the GI50 (SF-539) was > 100 µM (inactive). For the same compound, the GI50 (SK-MEL-28) was > 100 µM (inactive), the GI50 (SK-MEL-2) was 55.1 µM (inactive) and the GI50 (SK-MEL-5) was 72.9 µM (inactive). The GI50 (SK-OV-3) was 23.3 µM (inactive), the GI50 (SN12C) was 12.1 µM (inactive) and the GI50 (SNB-19) was 29.2 µM (inactive). For the same compound, the GI50 (SNB-75) was 20.7 µM (inactive), the GI50 (SNB-78) was 44.5 µM (inactive) and the GI50 (SR) was 31.6 µM (inactive). The GI50 (SW-620) was 20.7 µM (inactive), the GI50 (TK-10) was 33.7 µM (inactive) and the GI50 (U-251) was 18 µM (inactive). The GI50 (UACC-257) was > 100 µM (inactive), the GI50 (UACC-62) was > 100 µM (inactive) and the GI50 (UO-31) was 22.9 µM (inactive). For the same compound, the GI50 (XF498) was 23 µM (inactive).
